{"source": "patent US6403794B2", "about": "“Substituted 2-amino-4-alkylamino-1,3,5-triazines as herbicides” (Bayer Aktiengesellschaft, priority 1996, dated 2002)", "type_in_all_cases": "in vivo", "key": {"Abutilon [1]": {"test_system": "Abutilon", "assay": "Pre-emergence test", "details": "Abutilon, 504 h, greenhouse, after three weeks, read-out: degree of damage to the plants (% damage), Abutilon", "method": "(§1) Solvent: 5 parts by weight of acetone\n(§2) Emulsifier: 1 part by weight of alkylaryl polyglycol ether\n(§3) To produce a suitable preparation of active compound, 1 part by weight of active compound is mixed with the stated amount of solvent, the stated amount of emulsifier is added and the concentrate is diluted with water to the desired concentration.\n(§4) Seeds of the test plants are sown in normal soil. After about 24 hours, the soil is watered with the preparation of active compound. The amount of water per unit area is advantageously kept constant. The concentration of active compound in the preparation is immaterial, only the application rate of active compound per unit area matters.\n(§5) After three weeks, the degree of damage to the plants is scored visually in % damage in comparison to the development of the untreated control.\n(§6) 0%=no effect (like untreated control)"}, "Alopecurus": {"test_system": "Alopecurus", "assay": "Pre-emergence test", "details": "greenhouse, after three weeks", "method": "as §1, §2, §3, §4, §5, §6"}, "Cotton": {"test_system": "Cotton", "assay": "Pre-emergence test", "details": "greenhouse, 500 g of ai./ha, after three weeks", "method": "as §1, §2, §3, §4, §5, §6"}, "Digitaria": {"test_system": "Digitaria", "assay": "Pre-emergence test", "details": "greenhouse, 500 g of ai./ha, after three weeks", "method": "as §1, §2, §3, §4, §5, §6"}, "Galium [2]": {"test_system": "Galium", "assay": "Pre-emergence test", "details": "greenhouse, after three weeks", "method": "as §1, §2, §3, §4, §5, §6"}, "Maize": {"test_system": "Maize", "assay": "Pre-emergence test", "details": "greenhouse, 500 g of ai./ha, after three weeks", "method": "as §1, §2, §3, §4, §5, §6"}, "Matricaria": {"test_system": "Matricaria", "assay": "Pre-emergence test", "details": "greenhouse, 500 g of ai./ha, after three weeks", "method": "as §1, §2, §3, §4, §5, §6"}, "weeds [3]": {"test_system": "weeds", "assay": "Pre-emergence test", "method": "as §1, §2, §3, §4, §5, §6"}, "Abutilon [4]": {"test_system": "Abutilon", "assay": "Post-emergence test", "details": "greenhouse, after three weeks", "method": "as §1, §2, §3\n(§7) Test plants which have a height of 5-15 cm are sprayed with the preparation of active compound such that the particular amounts of active compounds desired are applied per unit area. The concentration of the spray liquor is chosen so that the particular amounts of active compound desired are applied in 1000 l of water/ha.\n(§8) After three weeks, the degree of damage to the plants is scored visually in % damage, in comparison to the untreated control.\nas §6"}, "Datura": {"test_system": "Datura", "assay": "Post-emergence test", "details": "greenhouse, 250 g of ai./ha, after three weeks", "method": "as §1, §2, §3, §7, §8, §6"}, "Echinochloa": {"test_system": "Echinochloa", "assay": "Post-emergence test", "details": "greenhouse, 250 g of ai./ha, after three weeks", "method": "as §1, §2, §3, §7, §8, §6"}, "Ipomoea": {"test_system": "Ipomoea", "assay": "Post-emergence test", "details": "greenhouse, 250 g of ai./ha, after three weeks", "method": "as §1, §2, §3, §7, §8, §6"}, "Veronica [5]": {"test_system": "Veronica", "assay": "Post-emergence test", "details": "greenhouse, 250 g of ai./ha, after three weeks", "method": "as §1, §2, §3, §7, §8, §6"}, "Wheat [6]": {"test_system": "Wheat", "assay": "Post-emergence test", "details": "greenhouse, 250 g of ai./ha, after three weeks", "method": "as §1, §2, §3, §7, §8, §6"}, "weeds [7]": {"test_system": "weeds", "assay": "Post-emergence test", "method": "as §1, §2, §3, §7, §8, §6"}, "Amaranthus [8]": {"test_system": "Amaranthus", "assay": "Pre-emergence test", "details": "Amaranthus, 504 h, greenhouse, 1000 g of ai./ha, after three weeks, read-out: degree of damage to the plants (% damage), Amaranthus", "method": "as §1, §2, §3, §4, §5, §6"}, "Chenopodium": {"test_system": "Chenopodium", "assay": "Pre-emergence test", "details": "greenhouse, 500 g of ai./ha, after three weeks", "method": "as §1, §2, §3, §4, §5, §6"}, "Setaria [9]": {"test_system": "Setaria", "assay": "Pre-emergence test", "details": "greenhouse, 1000 g of ai./ha, after three weeks", "method": "as §1, §2, §3, §4, §5, §6"}, "Solanum": {"test_system": "Solanum", "assay": "Pre-emergence test", "details": "greenhouse, 500 g of ai./ha, after three weeks", "method": "as §1, §2, §3, §4, §5, §6"}, "Veronica [10]": {"test_system": "Veronica", "assay": "Pre-emergence test", "details": "greenhouse, 500 g of ai./ha, after three weeks", "method": "as §1, §2, §3, §4, §5, §6"}, "Viola": {"test_system": "Viola", "assay": "Pre-emergence test", "details": "greenhouse, 500 g of ai./ha, after three weeks", "method": "as §1, §2, §3, §4, §5, §6"}, "Wheat [11]": {"test_system": "Wheat", "assay": "Pre-emergence test", "details": "greenhouse, 500 g of ai./ha, after three weeks", "method": "as §1, §2, §3, §4, §5, §6"}, "Amaranthus [12]": {"test_system": "Amaranthus", "assay": "Post-emergence test", "details": "Amaranthus, 504 h, greenhouse, 1000 g of ai./ha, after three weeks, read-out: degree of damage to the plants (% damage), Amaranthus", "method": "as §1, §2, §3, §7, §8, §6"}, "Galium [13]": {"test_system": "Galium", "assay": "Post-emergence test", "details": "greenhouse, 1000 g of ai./ha, after three weeks", "method": "as §1, §2, §3, §7, §8, §6"}, "Setaria [14]": {"test_system": "Setaria", "assay": "Post-emergence test", "details": "Setaria, 504 h, greenhouse, 1000 g of ai./ha, after three weeks, read-out: degree of damage to the plants (% damage), Setaria", "method": "as §1, §2, §3, §7, §8, §6"}, "Xanthium": {"test_system": "Xanthium", "assay": "Post-emergence test", "details": "greenhouse, 1000 g of ai./ha, after three weeks", "method": "as §1, §2, §3, §7, §8, §6"}}}
{"molecule": "CCC(CCc1ccccc1)Nc1nc(N)nc(C(C)(C)F)n1", "note": "(racemic) [Example 1, (R/S)-2-amino-4-(1-fluoro-1-methyl-ethyl)-6-(1-ethyl-3-phenyl-propylamino)-1,3,5-triazine]", "values": [{"measurement": "pest or weed control at 500 g/ha", "setting": "Abutilon [1]; 500 g of ai./ha", "result": 100, "unit": "%"}, {"measurement": "degree of damage to the plants (% damage), Alopecurus", "setting": "Alopecurus; 500 g of ai./ha", "result": 100, "unit": "%"}, {"measurement": "degree of damage to the plants (% damage), Cotton", "setting": "Cotton", "result": 0, "unit": "%"}, {"measurement": "degree of damage to the plants (% damage), Digitaria", "setting": "Digitaria", "result": 100, "unit": "%"}, {"measurement": "degree of damage to the plants (% damage), Galium", "setting": "Galium [2]; 500 g of ai./ha", "result": 100, "unit": "%"}, {"measurement": "degree of damage to the plants (% damage), Maize", "setting": "Maize", "result": 0, "unit": "%"}, {"measurement": "degree of damage to the plants (% damage), Matricaria", "setting": "Matricaria", "result": 100, "unit": "%"}, {"measurement": "activity against weeds", "setting": "weeds [3]", "result": "strong activity"}, {"measurement": "degree of damage to the plants (% damage), Abutilon", "setting": "Abutilon [4]; 250 g of ai./ha", "result": 100, "unit": "%"}, {"measurement": "degree of damage to the plants (% damage), Datura", "setting": "Datura", "result": 100, "unit": "%"}, {"measurement": "degree of damage to the plants (% damage), Echinochloa", "setting": "Echinochloa", "result": 80, "unit": "%"}, {"measurement": "degree of damage to the plants (% damage), Ipomoea", "setting": "Ipomoea", "result": 100, "unit": "%"}, {"measurement": "degree of damage to the plants (% damage), Veronica", "setting": "Veronica [5]", "result": 100, "unit": "%"}, {"measurement": "degree of damage to the plants (% damage), Wheat", "setting": "Wheat [6]", "result": 0, "unit": "%"}, {"measurement": "activity against weeds", "setting": "weeds [7]", "result": "strong activity"}]}
{"molecule": "CCC(CCc1ccccn1)Nc1nc(N)nc(C(C)(C)F)n1", "note": "(stereo not drawn) [Example 22]", "values": [{"measurement": "pest or weed control at 1000 g/ha", "setting": "Abutilon [1]; 1000 g of ai./ha", "result": 100, "unit": "%"}, {"measurement": "degree of damage to the plants (% damage), Alopecurus", "setting": "Alopecurus; 1000 g of ai./ha", "result": 90, "unit": "%"}, {"measurement": "pest or weed control at 1000 g/ha", "setting": "Amaranthus [8]", "result": 95, "unit": "%"}, {"measurement": "degree of damage to the plants (% damage), Chenopodium", "setting": "Chenopodium", "result": 100, "unit": "%"}, {"measurement": "degree of damage to the plants (% damage), Cotton", "setting": "Cotton", "result": 0, "unit": "%"}, {"measurement": "degree of damage to the plants (% damage), Galium", "setting": "Galium [2]; 1000 g of ai./ha", "result": 100, "unit": "%"}, {"measurement": "degree of damage to the plants (% damage), Setaria", "setting": "Setaria [9]", "result": 70, "unit": "%"}, {"measurement": "degree of damage to the plants (% damage), Solanum", "setting": "Solanum", "result": 100, "unit": "%"}, {"measurement": "degree of damage to the plants (% damage), Veronica", "setting": "Veronica [10]", "result": 100, "unit": "%"}, {"measurement": "degree of damage to the plants (% damage), Viola", "setting": "Viola", "result": 100, "unit": "%"}, {"measurement": "degree of damage to the plants (% damage), Wheat", "setting": "Wheat [11]", "result": 0, "unit": "%"}, {"measurement": "activity against weeds", "setting": "weeds [3]", "result": "strong activity"}, {"measurement": "degree of damage to the plants (% damage), Abutilon", "setting": "Abutilon [4]; 1000 g of ai./ha", "result": 70, "unit": "%"}, {"measurement": "pest or weed control at 1000 g/ha", "setting": "Amaranthus [12]", "result": 95, "unit": "%"}, {"measurement": "degree of damage to the plants (% damage), Galium", "setting": "Galium [13]", "result": 80, "unit": "%"}, {"measurement": "pest or weed control at 1000 g/ha", "setting": "Setaria [14]", "result": 80, "unit": "%"}, {"measurement": "degree of damage to the plants (% damage), Xanthium", "setting": "Xanthium", "result": 70, "unit": "%"}, {"measurement": "activity against weeds", "setting": "weeds [7]", "result": "strong activity"}]}
